Tests used:
LHGFR0N3C [1] = system: T1, LHGFR0N3C; assay: Emission ratio of cytosolic sensor in HEK293FT cells permeabilized with 10 uM digitonin versus L-2-HG (10 nM to 10 mM) in Hank's balanced salt solution with 20 mM HEPES.; assay type: cell-based; conditions: read-out: apparent Kd of LHGFR0N3C expressed in HEK293FT cells; SD, n = 3
T1 construct: FRET sensor: LhgR truncated by three C-terminal amino acids between mTFP (N-terminus) and Venus (C-terminus)
Method: To characterize the sensitivity and specificity of LHGFR expressed in HEK293FT cells, cells were trypsinized 48 h following transfection and suspended in 1× Hank’s balanced salt solution supplemented with 20 mM HEPES. […] Digitonin at a concentration of 10 μM was used to induce cell permeabilization and deplete intracellular L-2-HG for in vivo response curves construction. Then, the fluorescence intensities were determined by a SpectraMax i3 fluorescence plate reader (Molecular Devices, USA) with excitation at 430 nm and emission at 485 nm (mTFP) and 528 nm (Venus). Basal L-2-HG concentration in HEK293FT cells under physiological conditions was determined by substituting the emission ratios of non-permeabilized HEK293FT cells into the calibrated in vivo response curves.

LHGFR0N7C [2] = target: T2, LHGFR0N7C; assay: FRET titration of purified sensor with L-2-HG (10 nM to 2 mM) added to filtered human serum, sensor in 50 mM Tris-HCl pH 7.4 mixed 3:1, Venus/mTFP emission ratio.; assay type: binding; conditions: SD, n = 3
T2 construct: FRET sensor: LhgR truncated by seven C-terminal amino acids between mTFP (N-terminus) and Venus (C-terminus)
Method: (§1) Purified L-2-HG biosensors and different compounds were diluted by 50 mM Tris-HCl buffer (pH 7.4), mixed together in a black 96-well plate at a volume ratio of 3:1, and the fluorescence intensities were measured using an EnSight microplate reader (PerkinElmer, USA) with excitation at 430 nm, emission at 485 nm (mTFP) and 528 nm (Venus). The dose-response curves were fitted by OriginPro 2016 software (OriginLab) according to the following formula:1 R=Rmax+Rmin−Rmax/1+([L-2-HG]/Kd)^p where R, Rmin, and Rmax refer to the emission ratio of Venus to mTFP, ratio in the absence of L-2-HG, and ratio at saturation with L-2-HG, respectively. […] Emission spectra were recorded at 430 nm excitation, in steps of 2 nm. Excitation spectra were recorded using emission at 550 nm, excitation from 380 to 535 nm in steps of 2 nm.
(§2) In order to test the ability of LHGFR for quantitative analysis L-2-HG in different biological samples, purified LHGFR was diluted by 50 mM Tris-HCl (pH 7.4), while varying concentrations of L-2-HG were added into the serum and urine of a healthy adult and bacteria culture medium and filtered through a 0.22 μm filter, respectively. […] The mixtures of purified LHGFR and L-2-HG in different biological samples were then incubated in a black 96-well plate at a volume ratio of 3:1, and the emission ratios were determined using an EnSight microplate reader. […]

LHGFR0N3C [3] = target: T1, LHGFR0N3C; assay: as above; assay type: binding; conditions: SD, n = 3
Method: as §1, §2

LHGFR0N3C [4] = system: T1, LHGFR0N3C; assay: Emission ratio of sensor in living carbon-starved E. coli BL21(DE3) versus exogenous L-2-HG (100 nM to 10 mM) at 60 min, 37 °C.; assay type: cell-based; conditions: read-out: apparent Kd of LHGFR0N3C expressed in E. coli BL21(DE3); SD, n = 3
Method: E. coli BL21(DE3) strains harboring either pETDuet-LHGFR0N3C, pETDuet-LHGFR0N7C, or pETDuet-LHGFR3N7C were grown to an OD600 of 0.6 in LB medium at 37 °C, after which the cells were induced overnight in the presence of 1 mM IPTG at 16 °C.
To characterize the sensitivity and specificity of LHGFR expressed in E. coli BL21(DE3), 90 μL cell suspensions following 8 h carbon starvation were mixed with 10 μL increasing concentrations of L-2-HG or other compounds, and then added into a black 96-well plate (total 100 μL/per well), the fluorescence intensities were determined using an EnSight microplate reader (PerkinElmer, USA) and the following instrument settings: excitation at 430 nm, emission at 485 nm (mTFP) and 528 nm (Venus), time intervals of 5 min, the temperature at 37 °C, and shake at 180 rpm. […] In order to analyze functions of CsiD and LhgO in endogenous L-2-HG anabolism and catabolism during carbon starvation, pETDuet-LHGFR0N3C, pETDuet-LHGFR0N7C, or pETDuet-LHGFR3N7C was transferred into E. coli MG1655(DE3) and its variants, and the assays were performed using the same procedure.

LHGFR0N7C [5] = target: T2, LHGFR0N7C; assay: FRET titration of purified sensor with L-2-HG (10 nM to 2 mM) added to human urine diluted with an equal volume of 50 mM Tris-HCl pH 7.4, mixed 3:1, Venus/mTFP emission ratio.; assay type: binding; conditions: SD, n = 3
Method: as §1, §2

LHGFR0N3C [6] = target: T1, LHGFR0N3C; assay: as above; assay type: binding; conditions: SD, n = 3
Method: as §1, §2

LHGFR0N0C = target: T3, LHGFR0N0C; assay: FRET titration of purified sensor with L-2-HG in 50 mM Tris-HCl pH 7.4, Venus/mTFP emission ratio (excitation 430 nm, emission 528/485 nm), Hill-type fit.; assay type: binding; conditions: SD, n = 3; read-out: apparent dissociation constant (Kd)
T3 construct: FRET sensor: full-length LhgR between mTFP (N-terminus) and Venus (C-terminus); pETDuet-1, Ni-chelating purification
Method: (§3) Purified L-2-HG biosensors and different compounds were diluted by 50 mM Tris-HCl buffer (pH 7.4), mixed together in a black 96-well plate at a volume ratio of 3:1, and the fluorescence intensities were measured using an EnSight microplate reader (PerkinElmer, USA) with excitation at 430 nm, emission at 485 nm (mTFP) and 528 nm (Venus). The dose-response curves were fitted by OriginPro 2016 software (OriginLab) according to the following formula:1 R=Rmax+Rmin−Rmax/1+([L-2-HG]/Kd)^p where R, Rmin, and Rmax refer to the emission ratio of Venus to mTFP, ratio in the absence of L-2-HG, and ratio at saturation with L-2-HG, respectively. The [L-2-HG], Kd, and p refer to the L-2-HG concentration, apparent dissociation constant, and Hill slope, respectively. Emission spectra were recorded at 430 nm excitation, in steps of 2 nm. Excitation spectra were recorded using emission at 550 nm, excitation from 380 to 535 nm in steps of 2 nm.
(§4) Fig. 3 Design and optimization of the LHGFR. a Schematic representation of the predicted conformational change of LhgR-based L-2-HG biosensor LHGFR in the absence or presence of L-2-HG. […] The emission ratio of Venus to mTFP increased (430 nm excitation) after L-2-HG binding. c Heap map of the truncating the N-terminal and C-terminal amino acids of LhgR to ∆Rmax. […] The emission ratio changes of both biosensors were measured in the presence of 240 μM D-lactate, L-lactate, L-2-HG, D-2-HG, or different intermediates of the TCA cycle and L-lysine catabolism. g, h Reversal of L-2-HG binding with LHGFR by conversion of L-2-HG to 2-KG. […] All data shown are means ± s.d. (n = 3 independent experiments).
(§5) Supplementary Figure 6 Dose-response curves of purified LHGFR variants truncated three to seven C-terminal amino acids in LhgR for L-2-HG. Dose-response curves of LHGFR0N3C […]
(§6) concentrations (10 nM to 2 mM) of L-2-HG were indicated. The maximum ratio change (∆Rmax), apparent dissociation constant (Kd), and R2 were shown in each figure. All data shown are means ± s.d. (n = 3 independent experiments). Source data are provided as a […]

LHGFR0N7C [7] = target: T2, LHGFR0N7C; assay: as above; assay type: binding; conditions: SD, n = 3; read-out: apparent dissociation constant (Kd)
Method: as §3, §4, §5, §6

LHGFR0N3C [8] = target: T1, LHGFR0N3C; assay: as above; assay type: binding; conditions: SD, n = 3; read-out: apparent dissociation constant (Kd)
Method: as §3, §4, §5, §6

LHGFR0N7C [9] = target: T2, LHGFR0N7C; assay: FRET titration of purified sensor with L-2-HG (10 nM to 2 mM) added to filtered bacterial culture medium, sensor in 50 mM Tris-HCl pH 7.4 mixed 3:1, Venus/mTFP emission ratio.; assay type: binding; conditions: SD, n = 3
Method: as §1, §2

LHGFR0N3C [10] = target: T1, LHGFR0N3C; assay: as above; assay type: binding; conditions: SD, n = 3
Method: as §1, §2

LHGFR0N7C [11] = target: T2, LHGFR0N7C; assay: FRET titration of purified sensor with D-2-HG (10 nM to 2 mM) in 50 mM Tris-HCl pH 7.4, Venus/mTFP emission ratio (excitation 430 nm).; assay type: binding; conditions: SD, n = 3; read-out: apparent Kd in response to D-2-HG
Method: Purified L-2-HG biosensors and different compounds were diluted by 50 mM Tris-HCl buffer (pH 7.4), mixed together in a black 96-well plate at a volume ratio of 3:1, and the fluorescence intensities were measured using an EnSight microplate reader (PerkinElmer, USA) with excitation at 430 nm, emission at 485 nm (mTFP) and 528 nm (Venus). The dose-response curves were fitted by OriginPro 2016 software (OriginLab) according to the following formula:1 R=Rmax+Rmin−Rmax/1+([L-2-HG]/Kd)^p where R, Rmin, and Rmax refer to the emission ratio of Venus to mTFP, ratio in the absence of L-2-HG, and ratio at saturation with L-2-HG, respectively. The [L-2-HG], Kd, and p refer to the L-2-HG concentration, apparent dissociation constant, and Hill slope, respectively. Emission spectra were recorded at 430 nm excitation, in steps of 2 nm. Excitation spectra were recorded using emission at 550 nm, excitation from 380 to 535 nm in steps of 2 nm. […]
column in the presence of only L-2-HG was used as the control. (c, d) Comparison of the […]
LHGFR0N7C (d). […]
response to D-2-HG (1.85 ± 0.91 mM; black line) than L-2-HG (7.22 ± 0.38 μM; red line). (e-j) Dose-response curves of LHGFR0N3C (e, g, and i) and LHGFR0N7C (f, h, and j) for increasing concentrations (10 nM to 2 mM) of L-2-HG were measured in the presence of 240 μM D-2-HG (e, f), 1 mM 2-KG (g, h), or 1 mM ATP (i, j). […]

Row | SMILES | Kd (LHGFR0N3C [1]) [µM] | Kd (LHGFR0N7C [2]) [µM] | Kd (LHGFR0N3C [3]) [µM] | Kd (LHGFR0N3C [4]) [µM] | Kd (LHGFR0N7C [5]) [µM] | Kd (LHGFR0N3C [6]) [µM] | Kd (LHGFR0N0C) [nM] | Kd (LHGFR0N7C [7]) [µM] | Kd (LHGFR0N3C [8]) [µM] | Kd (LHGFR0N7C [9]) [µM] | Kd (LHGFR0N3C [10]) [µM] | Kd (LHGFR0N7C [11]) [mM]
1 | O=C(O)CC[C@H](O)C(=O)O [L-2-HG, L-2-hydroxyglutarate] | 43.8 | 8.35 | 27.8 | 892 | 7.77 | 29.5 | 2740 | 7.22 | 29.3 | 6.65 | 36.9 | 
2 | O=C(O)CC[C@@H](O)C(=O)O [D-2-HG, D-2-hydroxyglutarate] |  |  |  |  |  |  |  |  |  |  |  | 1.85

Reference: paper PMC8206213, “An L-2-hydroxyglutarate biosensor based on specific transcriptional regulator LhgR” (Nature Communications, 2021)
